Experiments:
[1] = biological target: T1, human endothelial lipase (EL) (Homo sapiens, UniProt Q9Y5X9); assay: Endothelial Lipase Assay, cell surface lipase activity (human); type: cell-based; details: cells expressing human EL, PLA1 substrate 10 μM, fluorescence reaction rate; several values in a cell are repeat determinations
T1 construct: host or cells: cells expressing human endothelial lipase
T1 sequence (Q9Y5X9 21-500): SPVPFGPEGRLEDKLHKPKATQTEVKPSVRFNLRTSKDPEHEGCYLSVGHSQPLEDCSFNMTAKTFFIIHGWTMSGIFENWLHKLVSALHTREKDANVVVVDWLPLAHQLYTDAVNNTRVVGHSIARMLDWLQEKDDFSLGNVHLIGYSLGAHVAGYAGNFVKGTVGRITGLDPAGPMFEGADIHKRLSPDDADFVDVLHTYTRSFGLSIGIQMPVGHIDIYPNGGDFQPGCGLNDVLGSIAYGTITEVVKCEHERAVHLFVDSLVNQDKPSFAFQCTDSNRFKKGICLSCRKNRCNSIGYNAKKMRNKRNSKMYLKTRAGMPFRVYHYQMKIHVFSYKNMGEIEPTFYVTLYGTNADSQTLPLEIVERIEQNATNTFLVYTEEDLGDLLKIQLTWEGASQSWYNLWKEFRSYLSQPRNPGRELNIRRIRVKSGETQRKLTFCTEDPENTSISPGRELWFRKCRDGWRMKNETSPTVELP
Experimental: (§1) Endothelial Lipase Assay (Human/Mouse)
(§2) To assay for cell surface lipase activity, cells expressing human endothelial lipase (EL) or LPL were plated in CellBIND® 384-well plates (Corning, Lowell, Mass.) in 25 μL serum free medium at a density of 2000 cells/well. After 18-24 hours incubation at 37° C., the medium was removed and replaced with 15 μL assay buffer [Hank's Buffered Saline Solution with 25 mM HEPES pH 7.2] and 15 μL PLA1 for a final concentration of 10 μM using a Multidrop reagent dispenser. Fluorescence signal was monitored for 30 min at 37° C. on a Safire II plate reader in kinetic mode (60 cycles, kinetic interval: 30 seconds) with an excitation wavelength of 490 nm and an emission wavelength of 515 nm. Linear regression of the fluorescence intensity collected from 480 to 1500 seconds was used to calculate the reaction rate (the slope) and the slopes were used to calculate IC50 values where appropriate. The amount of BODIPY-labeled product generated was calculated at the 30 min time point as determined from standard curve analysis of purified BODIPY FL C5. In all studies using the inhibitor Ebelactone B, consistent results were obtained when it was dissolved as a stock in DMSO, immediately before use.

Mouse EL = biological target: T2, Mouse EL (Mus musculus, UniProt Q9WVG5); assay: Endothelial Lipase Assay, cell surface lipase activity (mouse); type: cell-based; details: PLA1 substrate 10 μM, fluorescence reaction rate, several values in a cell are repeat determinations
T2 construct: host or cells: not described for mouse EL
T2 sequence (Q9WVG5 21-500): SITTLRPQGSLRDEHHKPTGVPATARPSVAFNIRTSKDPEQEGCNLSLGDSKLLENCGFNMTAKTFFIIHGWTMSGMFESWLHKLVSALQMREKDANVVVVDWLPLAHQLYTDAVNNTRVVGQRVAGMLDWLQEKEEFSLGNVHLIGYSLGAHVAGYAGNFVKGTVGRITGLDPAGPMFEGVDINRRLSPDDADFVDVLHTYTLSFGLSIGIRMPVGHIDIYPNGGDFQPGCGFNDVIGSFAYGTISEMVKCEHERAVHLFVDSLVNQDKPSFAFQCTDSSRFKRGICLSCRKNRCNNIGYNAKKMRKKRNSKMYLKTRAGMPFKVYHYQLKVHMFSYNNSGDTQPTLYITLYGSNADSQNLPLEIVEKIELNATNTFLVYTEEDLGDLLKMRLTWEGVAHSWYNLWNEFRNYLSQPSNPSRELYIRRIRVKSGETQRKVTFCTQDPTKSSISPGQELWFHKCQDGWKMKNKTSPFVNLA
Experimental: as §1, §2

Row | SMILES | IC50 [1] [nM] | IC50 (Mouse EL) [nM]
1 | O=C(CCCCCCc1ccccc1)C(=O)NCc1nnc(-c2ccc(Oc3ccc(Cl)cc3)cc2)o1 [Compound 59] | 2590 | 1110
2 | O=C(CCCCCOc1cccc(F)c1)C(=O)NCc1nnc(-c2ccc(Oc3ccc(Cl)cc3)cc2)o1 [Compound 57] | 3780 | 1100
3 | O=C(CCCCCOc1ccccc1)C(=O)NCc1nnc(-c2ccccc2)o1 [Compound 46] | 8750 | 6510
4 | O=C(CCCCCCc1cncnc1)C(=O)NCc1nnc(-c2ccc(Oc3ccccc3)cc2)o1 [Compound 120] | 1510 | 973
5 | O=C(CCCCCCc1ccccc1)C(=O)NCc1nnc(-c2ccc(-c3ccccc3)cc2)o1 [Compound 17] | 3360 | 1880
6 | O=C(CCCCCCc1ccccc1)C(=O)NCc1nnc(-c2ccccc2)[nH]1 [Compound 11] | 10400 | 
7 | O=C(CCCCCOc1c(F)cccc1F)C(=O)NCc1nnc(-c2ccc(Oc3ccccc3)cc2)o1 [Compound 93] | 3060 | 1480
8 | O=C(CCCCC=Cc1ccccc1)C(=O)NCc1nnc(-c2ccc(Oc3ccccc3)cc2)o1 [Compound 143] | 7690 | 11100
9 | COc1cccc(C#CCCCC(=O)C(=O)NCc2nnc(-c3ccccc3)o2)c1 [Compound 40] | 33300 | 33300
10 | CN(C)c1ccc(-c2nnc(CNC(=O)C(=O)CCCCCCc3ccccc3)o2)cc1 [Compound 24] | 16600 | 20700
11 | O=C(CCCCCCc1ccccc1)C(=O)NCc1nnc(-c2ccc(NCc3cccnc3)cc2)o1 [Compound 124] | 3610 | 2930
12 | O=C(CCCCC#Cc1ccccc1)C(=O)NCc1nnc(-c2ccccc2)o1 [Compound 43] | 2410 | 2650
13 | N#Cc1ccc(C#CCCCCC(=O)C(=O)NCc2nnc(-c3ccccc3)o2)cc1 [Compound 45] | 3470 | 2410
14 | O=C(CCCCCCc1ccccc1)C(=O)NCc1nnc(-c2ccncc2)o1 [Compound 178] | 11600 | 7320
15 | O=C(CCCCCc1ccc(-c2ccccc2)cc1)C(=O)NCc1nnc(-c2ccc3ccccc3c2)o1 [Compound 36] | 10200 | 6600
16 | O=C(CCCCCNc1cccc(F)n1)C(=O)NCc1nnc(-c2ccccc2)o1 [Compound 171] | 33000 | 
17 | COc1ccccc1-c1nnc(CNC(=O)C(=O)CCCCCCc2ccccc2)o1 [Compound 6] | 2650 | 
18 | O=C(CCCCCOc1ccccc1)C(=O)NCc1nnc(-c2ccc(Oc3ccccc3)cc2)o1 [Compound 52] | 2610 | 1800
19 | O=C(CCCCCOc1ccccc1)C(=O)NCc1nnc(-c2cccc(Oc3ccccc3)c2)o1 [Compound 60] | 7120 | 9800
20 | O=C(CCCCCCc1ccncc1)C(=O)NCc1nnc(-c2ccccc2)o1 [Compound 42] | 4650 | 2730
21 | O=C(CCCCCCc1ccccc1)C(=O)NCc1nnc(-c2cccnc2)o1 [Compound 177] | 5220 | 

Now those with a lower IC50 [1], led by results:

Row | IC50 [1] [nM] | IC50 (Mouse EL) [nM] | SMILES
22 | 488 | 616 | O=C(CCCCCCc1ccccc1)C(=O)NCc1nnc(-c2ccc(Cl)cc2)o1 [Compound 2]
23 | 224 | 127 | O=C(CCCCCCc1cccc(F)c1)C(=O)NCc1nnc(-c2ccc3ccccc3c2)o1 [Compound 28]
24 | 979 | 904 | O=C(CCCCCCc1cccnc1F)C(=O)NCc1nnc(-c2ccc(Oc3ccccc3)cc2)o1 [Compound 119]
25 | 386 | 176 | O=C(CCCCCOc1cc(F)cc(F)c1)C(=O)NCc1nnc(-c2ccc(Oc3ccccc3)cc2)s1 [Compound 133]
26 | 440 | 346 | O=C(CCCCCCc1ccccc1)C(=O)NCc1nnc(-c2cccc(Cl)c2)o1 [Compound 18]
27 | 490 | 552 | O=C(CCCCCCc1ccccc1)C(=O)NCc1nnc(-c2ccc(F)c(F)c2)o1 [Compound 20]
28 | 219 | 436 | O=C(CCCCCCc1ccccc1)C(=O)NCc1nnc(-c2ccccc2)s1 [Compound 74]
29 | 78 | 50 | N#Cc1cccc(COc2ccc(-c3nnc(CNC(=O)C(=O)CCCCCCc4ccccc4)o3)cc2)c1 [Compound 117]
30 | 640 | 648 | O=C(CCCCCOc1cccc(F)c1)C(=O)NCc1nnc(-c2ccc(Oc3cccc(Cl)c3)cc2)o1 [Compound 67]
31 | 751 | 232 | O=C(CCCCCCc1ccccc1)C(=O)NCc1nnc(-c2ccc(OCc3cccc(Cl)n3)cc2)s1 [Compound 164]
32 | 432 | 911 | O=C(CCCCCOc1ccc(F)cc1F)C(=O)NCc1nnc(-c2ccc(Oc3ccccc3)cc2)o1 [Compound 92]
33 | 325 | 289 | O=C(CCCCCCc1ccccc1)C(=O)NCc1nnc(-c2ccc(NCc3ccccc3)cc2)o1 [Compound 116]
34 | 101 | 45 | COC(=O)c1ccc(COc2ccc(-c3nnc(CNC(=O)C(=O)CCCCCCc4ccccc4)s3)cc2)o1 [Compound 141]
35 | 561 | 312 | O=C(CCCCCCc1cccc(OC(F)(F)F)c1)C(=O)NCc1nnc(-c2ccccc2)o1 [Compound 49]
36 | 16 | 14 | COC(=O)c1cccc(COc2ccc(-c3nnc(CNC(=O)C(=O)CCCCCCc4ccc(F)nc4)s3)cc2)c1 [Compound 170]
37 | 71 | 42 | O=C(CCCCCCc1ccccc1)C(=O)NCc1nnc(-c2ccc(OCc3ccccn3)cc2)s1 [Compound 139]

Row | IC50 [1] [nM] | IC50 (Mouse EL) [nM] | SMILES
38 | 230 | 181 | O=C(CCCCCCc1ccccc1)C(=O)NCc1nnc(-c2ccc(OCn3nnc4ccccc43)cc2)o1 [Compound 104]
39 | 78 | 51 | Cc1cc(COc2ccc(-c3nnc(CNC(=O)C(=O)CCCCCCc4ccccc4)s3)cc2)ccn1 [Compound 174]
40 | 643 | 772 | Cc1ccc(-c2nnc(CNC(=O)C(=O)CCCCCc3ccc(F)cc3)o2)cc1 [Compound 39]
41 | 121 | 64 | COC(=O)c1cccc(COc2ccc(-c3nnc(CNC(=O)C(=O)CCCCCCc4ccccc4)o3)cc2)c1 [Compound 83]
42 | 663 |  | O=C(CCCCCCc1ccccc1)C(=O)NCc1nnc(-c2ccccc2Cl)o1 [Compound 5]
43 | 746 | 298 | O=C(CCCCCCc1ccccc1)C(=O)NCc1nnc(-c2ccc(Oc3ccc(F)cc3)cc2)o1 [Compound 106]
44 | 872 | 793 | COc1cccc(OCCCCCC(=O)C(=O)NCc2nnc(-c3ccc(Oc4ccccc4)cc3)o2)c1 [Compound 65]
45 | 1100 |  | COc1cccc(-c2nnc(CNC(=O)C(=O)CCCCCCc3ccccc3)o2)c1 [Compound 3]
46 | 93 | 37 | COC(=O)c1cccc(COc2ccc(-c3nnc(CNC(=O)C(=O)CCCCCCc4ccccc4)s3)cc2)c1 [Compound 137]
47 | 85 | 62 | O=C(CCCCCCc1ccc(F)nc1)C(=O)NCc1nnc(-c2ccc(OCc3ccnc(Cl)c3)cc2)s1 [Compound 169]
48 | 1450 | 708 | O=C(CCCCCCc1ccccc1)C(=O)NCc1nnc(-c2ccc(Oc3ncccn3)cc2)o1 [Compound 87]
49 | 505 | 317 | CN(Cc1ccccc1)c1ccc(-c2nnc(CNC(=O)C(=O)CCCCCCc3ccccc3)o2)cc1 [Compound 109]
50 | 607 | 802 | O=C(CCCCCCc1ccccc1F)C(=O)NCc1nnc(-c2ccccc2)o1 [Compound 51]
51 | 457 |  | O=C(CCCCCCc1ccccc1)C(=O)NCc1nnc(-c2ccc3c(c2)OCO3)o1 [Compound 7]
52 | 640 |  | COc1ccc(-c2nnc(CNC(=O)C(=O)CCCCCCc3ccccc3)o2)cc1 [Compound 4]
